In US20130216498A1, “IMIDAZOPYRIDINE DERIVATIVES AS JAK INHIBITORS” (priority 2009, published 2013) one finds IC50 data, which are given here for 17 compounds.

Molecules are shown by their SMILES. Where only a bound is given, the exact number is not on record here.

What all share (format): biochemical
For test [1], the target named is T1, human JAK2 (aa 826-1132) catalytic domain (Homo sapiens, UniProt O60674).
T1 construct: JAK2 (aa 826-1132); GST (N); purchased Carna Biosciences; host or cells: baculovirus expression system
Briefly: In vitro JAK kinase assay (TR-FRET), JAK2. To be noted: GST-fusion catalytic domain; ATP 0.2 μM; poly (GT)-Biotin 20 nM; 30 minutes at room temperature. On the procedure: (§1) Compounds were screened for their ability to inhibit JAK1, JAK2 and JAK3 using the assays as indicated below.
(§2) The catalytic domains of human JAK1 (aa 850-1154), JAK2 (aa 826-1132), JAK3 (aa 795-1124) and Tyk2 (aa 871-1187) were expressed as N-terminal GST-fusion proteins using a baculovirus expression system and were purchased from Carna Biosciences. The enzymatic activity was assayed using as substrate a biotinylated peptide, poly (GT)-Biotin (CisBio). The peptide concentration in the reactions was 60 nM for JAK1, 20 nM for JAK2, 140 nM for JAK3 and 50 nM for Tyk2. The degree of phosphorylation was detected by TR-FRET (time-resolved fluorescence energy transfer).
(§3) IC50s of compounds were measured for each kinase in a reaction mixture containing the enzyme, ATP and the peptide in 8 mM MOPS (pH 7.0), 10 mM MgCl2, 0.05% β-mercaptoethanol, 0.45 mg/mL BSA. The ATP concentration in the reactions was 3 μM for JAK1, 0.2 μM for JAK2, 0.6 μM for JAK3 and 1.8 μM for Tyk2. The enzymatic reactions took place for 30 minutes at room temperature. Then, the reactions were stopped with 20 μL of quench detection buffer (50 mM HEPES, 0.5 M KF, EDTA 0.25 M, 0.1% (w/v) BSA, pH 7.5) containing 0.115 μg/mL of anti-phosphoTyr (PT66)-Cryptate (CisBio) and a variable concentration of SA-XL665 (CisBio) to keep the SA-B ratio constant. Incubate for 3 h and read on Victor 2V spectrofluorometer (PerkinElmer) set to read fluorescence resonance energy transfer.

Test [2] addresses T2, human JAK1 (aa 850-1154) catalytic domain (Homo sapiens, UniProt P23458).
T2 construct: human JAK1 (aa 850-1154); GST (N); purchased Carna Biosciences; host or cells: baculovirus expression system
Briefly: In vitro JAK kinase assay (TR-FRET), JAK1. Conditions: GST-fusion catalytic domain; ATP 3 μM; poly (GT)-Biotin 60 nM; 30 minutes at room temperature. On the procedure:
as §1, §2, §3
Background: TR-FRET usually uses a lanthanide donor and a delayed reading to cut background.

For test [3], the target named is T3, human JAK3 (aa 795-1124) catalytic domain (Homo sapiens, UniProt P52333).
T3 construct: JAK3 (aa 795-1124); GST (N); purchased Carna Biosciences; host or cells: baculovirus expression system
Description: In vitro JAK kinase assay (TR-FRET), JAK3. To be noted: GST-fusion catalytic domain; ATP 0.6 μM; poly (GT)-Biotin 140 nM; 30 minutes at room temperature. On the procedure:
as §1, §2, §3

T3 sequence (P52333 795-1124): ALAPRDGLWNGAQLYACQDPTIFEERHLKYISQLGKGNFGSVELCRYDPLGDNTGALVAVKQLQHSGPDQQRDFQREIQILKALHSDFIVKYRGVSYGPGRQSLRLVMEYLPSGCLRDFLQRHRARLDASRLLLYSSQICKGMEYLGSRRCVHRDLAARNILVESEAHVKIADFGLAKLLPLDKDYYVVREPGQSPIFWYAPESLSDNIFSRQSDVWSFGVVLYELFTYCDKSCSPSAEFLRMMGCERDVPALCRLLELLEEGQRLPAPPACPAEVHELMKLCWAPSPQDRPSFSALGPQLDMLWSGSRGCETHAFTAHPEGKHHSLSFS
T2 sequence (P23458 850-1154): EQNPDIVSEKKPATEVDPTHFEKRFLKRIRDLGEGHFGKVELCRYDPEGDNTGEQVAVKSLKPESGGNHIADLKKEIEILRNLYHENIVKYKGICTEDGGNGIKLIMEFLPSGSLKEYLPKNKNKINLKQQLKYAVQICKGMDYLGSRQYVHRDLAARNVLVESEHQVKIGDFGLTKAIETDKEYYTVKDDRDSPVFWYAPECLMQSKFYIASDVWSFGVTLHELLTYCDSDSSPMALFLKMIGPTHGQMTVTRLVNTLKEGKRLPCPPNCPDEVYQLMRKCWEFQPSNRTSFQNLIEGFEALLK
T1 sequence (O60674 826-1132): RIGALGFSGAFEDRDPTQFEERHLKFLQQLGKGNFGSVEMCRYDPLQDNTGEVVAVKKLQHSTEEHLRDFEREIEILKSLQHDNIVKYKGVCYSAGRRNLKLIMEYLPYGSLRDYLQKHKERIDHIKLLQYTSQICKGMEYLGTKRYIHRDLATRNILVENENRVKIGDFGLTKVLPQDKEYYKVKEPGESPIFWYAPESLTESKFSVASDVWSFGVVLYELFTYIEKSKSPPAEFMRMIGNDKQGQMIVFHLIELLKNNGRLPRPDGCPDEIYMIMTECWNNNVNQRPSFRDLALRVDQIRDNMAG

As usually defined, the IC50 is the midpoint of a concentration-inhibition curve. For `Cc1cnc(-c2cnc3ccc(F)cn23)nc1N[C@@H]1CCN(C(=O)CC#N)C1` [Example 134, (R)-3-(3-(2-(6-Fluoroimidazo[1,2-a]pyridin-3-yl)-5-methylpyrimidin-4-ylamino)pyrrolidin-1-yl)-3-oxopropanenitrile], the IC50 in test [1] is less than 100 nM; in test [2], 100 to 1000 nM; in test [3] it was 100 to 1000 nM.
`C[C@@H](c1ccc(F)cn1)N(C)c1nc(-c2cnc3ccc(F)cn23)ncc1C(=O)O` [Example 145, (S)-2-(6-Fluoroimidazo[1,2-a]pyridin-3-yl)-4-((1-(5-fluoropyridin-2-yl)ethyl)(methyl)amino)pyrimidine-5-carboxylic acid]: the IC50 was less than 100 nM in test [1], 100 to 1000 nM in test [2] and 100 to 1000 nM in test [3].
For `N#CCC(=O)N1CCCN(c2ccnc(-c3cnc4ccc(C#N)cn34)n2)CC1` [Example 82, 3-{4-[4-(Cyanoacetyl)-1,4-diazepan-1-yl]pyrimidin-2-yl}imidazo[1,2-a]pyridine-6-carbonitrile], the IC50 is 100 to 1000 nM in test [1], more than 1000 nM in test [2] and more than 1000 nM in test [3].
With `Cc1cnc(-c2cnc3ccc(F)cn23)nc1N[C@@H]1CCCN(C(=O)CC(F)(F)F)C1` [Example 80, 2-(6-Fluoroimidazo[1,2-a]pyridin-3-yl)-5-methyl-N-[(3R)-1-(3,3,3-trifluoropropanoyl)piperidin-3-yl]pyrimidin-4-amine], the IC50 in test [1], in test [2] and in test [3] was less than 100 nM throughout.
For `CC(C)S(=O)(=O)N1CCC[C@@H](Nc2ccnc(-c3cnc4ccc(C#N)cn34)n2)C1` [Example 45, 3-(4-{[(3R)-1-(Isopropylsulfonyl)piperidin-3-yl]amino}pyrimidin-2-yl)imidazo[1,2-a]pyridine-6-carbonitrile], the IC50 in test [1] is 100 to 1000 nM; in test [2], more than 1000 nM; in test [3] it was 100 to 1000 nM.
For `CC(C)(C)CNc1nc(-c2cnc3ccc(C#N)cn23)nc2ccccc12` [Example 25], the IC50 in test [1], in test [2] and in test [3] was 100 to 1000 nM throughout.
Turning to `Nc1cnc(-c2cnc3ccc(F)cn23)nc1NC1CCCc2ncccc21` (stereo not drawn) [Example 137, 2-(6-Fluoroimidazo[1,2-a]pyridin-3-yl)-N^4-(5,6,7,8-tetrahydroquinolin-5-yl)pyrimidine-4,5-diamine], the IC50 is less than 100 nM in test [1], more than 1000 nM in test [2] and 100 to 1000 nM in test [3].
On the same counts, the results for `N#CCC(=O)N1CCC[C@@H](Nc2cc(N3CCC[C@H]3C(=O)O)nc(-c3cnc4ccc(F)cn34)n2)C1` [Example 172] are less than 100 nM, 100 to 1000 nM and 100 to 1000 nM.
On to `COCCNc1ccnc(-c2cnc3ccc(C#N)cn23)n1` [Example 6, 3-{4[(2-Methoxyethyl)amino]pyrimidin-2-yl}imidazo[1,2-a]pyridine-6-carbonitrile], for which the IC50 was 100 to 1000 nM in test [1], more than 1000 nM in test [2] and 100 to 1000 nM in test [3].
Regarding `C[C@H](Nc1cncc(-c2cnc3ccc(C4CC4)cn23)n1)c1ccccc1` [Example 38, 6-(6-Cyclopropylimidazo[1,2-a]pyridin-3-yl)-N-[(1S)-1-phenylethyl]pyrazin-2-amine], the IC50 in test [1] is less than 100 nM; in test [2], more than 1000 nM; in test [3], 100 to 1000 nM.
In the case of `N#CCC(=O)N1CCC[C@@H](Nc2ccnc(-c3cnc4ccc(F)cn34)n2)C1` [Example 64, 3-((3R)-3-{[2-(6-Fluoroimidazo[1,2-a]pyridin-3-yl)pyrimidin-4-yl]amino}piperidin-1-yl)-3-oxopropanenitrile], the IC50 in test [1], in test [2] and in test [3] was less than 100 nM in each case.
Take `O=C(CC(F)(F)F)N1CCC[C@@H](N(CC2CC2)c2ccnc(-c3cnc4ccc(F)cn34)n2)C1` [Example 76, N-(Cyclopropylmethyl)-2-(6-fluoroimidazo[1,2-a]pyridin-3-yl)-N-[(3R)-1-(3,3,3-trifluoropropanoyl)piperidin-3-yl]pyrimidin-4-amine]: the IC50 in test [1] is less than 100 nM; in test [2], more than 1000 nM; in test [3], 100 to 1000 nM.
The corresponding values for `N#CCC(=O)N1CCC[C@@H](Nc2cc(N)nc(-c3cnc4ccc(F)cn34)n2)C1` [Example 183, (R)-3-(3-(6-Amino-2-(6-fluoroimidazo[1,2-a]pyridin-3-yl)pyrimidin-4-ylamino)piperidin-1-yl)-3-oxopropanenitrile] are less than 100 nM, less than 100 nM and less than 100 nM.
With `C[C@H](Nc1ccnc(-c2cnc3ccc(C#N)cn23)n1)c1ccccc1` [Example 1, 3-(4-{[(1S)-1-Phenylethyl]amino}pyrimidin-2-yl)imidazo[1,2-a]pyridine-6-carbonitrile], the IC50 in test [1] was less than 100 nM; in test [2] it was 100 to 1000 nM; in test [3] it was less than 100 nM.
For the compound `CC(C)(C)CNc1ccnc(-c2cnc3ccccn23)n1` [Example 31, N-(2,2-Dimethylpropyl)-2-imidazo[1,2-a]pyridin-3-ylpyrimidin-4-amine], the IC50 is less than 100 nM in test [1], 100 to 1000 nM in test [2] and 100 to 1000 nM in test [3].
`CC(C)(C)CNc1nc(-c2cnc3ccc(C#N)cn23)ncc1-c1cccnc1` [Example 13, 3-{4-[(2,2-Dimethylpropyl)amino]-5-pyridin-3-ylpyrimidin-2-yl}imidazo[1,2-a]pyridine-6-carbonitrile]: the IC50 in test [1] is 100 to 1000 nM; in test [2] it was more than 1000 nM; in test [3], 100 to 1000 nM.
Take `CS(=O)(=O)c1cnc(-c2cnc3ccc(F)cn23)nc1N[C@@H]1CCCN(C(=O)CC#N)C1` [Example 159, (R)-3-(3-(2-(6-Fluoroimidazo[1,2-a]pyridin-3-yl)-5-(methylsulfonyl)pyrimidin-4-ylamino)piperidin-1-yl)-3-oxopropanenitrile]: the IC50 in test [1] was less than 100 nM; in test [2], more than 1000 nM; in test [3], 100 to 1000 nM.
